# Test results: BindingDB's records for doi:10.1016/j.bmcl.2018.12.057 (Indian Institute of Technology Madras, 2019)
# Biological target: Luciferin 4-monooxygenase (Photinus pyralis, UniProt P08659)
# Assay: Activation of firefly luciferase activity expressed in HEK293T cells after 6 hrs by luminescence assay
# Luciferin 4-monooxygenase, sequence (P08659 whole entry): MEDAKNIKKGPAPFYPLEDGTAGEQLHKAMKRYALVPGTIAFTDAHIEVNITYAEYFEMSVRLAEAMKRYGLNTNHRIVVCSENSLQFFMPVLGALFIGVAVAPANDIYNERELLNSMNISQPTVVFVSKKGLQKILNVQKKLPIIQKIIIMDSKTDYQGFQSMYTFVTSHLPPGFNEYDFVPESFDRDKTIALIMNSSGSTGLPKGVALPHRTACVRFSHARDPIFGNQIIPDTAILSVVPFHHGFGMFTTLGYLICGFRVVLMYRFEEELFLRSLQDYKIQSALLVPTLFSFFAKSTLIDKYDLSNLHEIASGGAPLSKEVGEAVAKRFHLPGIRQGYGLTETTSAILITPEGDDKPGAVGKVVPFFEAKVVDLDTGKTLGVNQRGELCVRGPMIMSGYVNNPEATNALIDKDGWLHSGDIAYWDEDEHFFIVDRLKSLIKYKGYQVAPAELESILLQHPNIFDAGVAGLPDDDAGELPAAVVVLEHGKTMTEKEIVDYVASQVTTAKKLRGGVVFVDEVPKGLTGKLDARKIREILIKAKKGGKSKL
smiles,measurement,value
CCCCCCCCCCCCCC(=O)O[C@@H]1[C@@H](C)[C@@]2(O)[C@@H](C=C(CO)C[C@]3(O)C(=O)C(C)=C[C@@H]23)[C@@H]2C(C)(C)[C@]12OC(C)=O [phorbol 13-acetate 12-myristate],EC50,10 nM
